Structures can show the parent of a compound that is named as a salt. Where two headings read alike, the source gives them in different places.
Legend:
[1] = system: iCell endothelial cells (human iPSC-derived ECs); experiment: High-content imaging cytotoxicity in iCell endothelial cells, 24 h; assay type: cell-based; settings: Homo sapiens, Endothelial cell, iPSC-EC, 24 hr; for viability at 0.1 µM / activity at 0.1 µM: 0.10 µM; for minimal effective concentration: top concentration 100.00 µM
Method: (§1) The culture conditions of iCell®-endothelial cells were as reported elsewhere ([Iwata et al. 2017]). Briefly, T75 flasks were coated with a fibronectin solution ( 3 μg/cm^2 ) followed by incubation for 1–2 h. Cells were thawed for 3 min in a 37°C water bath. Thawed cells were added to maintenance medium made of VascuLife VEGF Medium Complete Kit, excluding the supplied FBS, and iCell® Endothelial Cells Medium Supplement. The final formulation of the maintenance medium is detailed in ([Iwata et al. 2017]). The aliquoted fibronectin solution was aspirated from the T75 flasks, and cells were seeded at 1.0×10^4 cells/cm^2 . Cells were maintained at 37°C and 5% CO2 with media changes occurring every 2 d and passaged every 3–4 d using TrypLE™ Express. All experiments were conducted on cells between passages 1 and 5.
Cytotoxicity was assessed in parallel experiments. For iCell®-endothelial cells, 384-well plates were coated with a 30μg/mL fibronectin solution ( 10μL/well ) and incubated for 2 h at RT. iCell®-endothelial cells were dissociated with TrypLE™ Express and prepared into a solution to achieve 750 cells per well and 50μL of total volume. The fibronectin solution was removed from the 384-well plate, and cells were plated. For HUVECs, similar dissociation and the same cell density were used for plating with the exclusion of the fibronectin solution. Cells were incubated at 37°C and 5% CO2 until a monolayer was formed, typically 3–5 d. 2×PCB plates were created with the requisite maintenance medium. Before treatment, the medium in the wells was exchanged to 25μL/well of fresh maintenance medium. 2×PCB chemical solutions ( […] ) were added. After 24 h incubation at 37°C and 5% CO2 , cells were stained with Hoechst 33342, MitoTracker™ Orange, and calcein AM for 20 min before replacing the staining media with FluoroBright DMEM. Cell culture plates were imaged using the ImageXpress® Micro Confocal high-content imaging system (Molecular Devices). Images were acquired at 10× magnification with DAPI, TRITC, or FITC filter (Hoechst 33342, MitoTracker™, or calcein AM, respectively). The multiwavelength cell scoring applications module in MetaXpress™ (Molecular Devices) was used to analyze the images.
(§2) Phenotypic responses were quantitatively assessed using concentration–response modeling as detailed elsewhere ([Sirenko et al. 2017]). Briefly, phenotypic readouts were normalized to vehicle controls and fit to a four-parameter logistic model in R studio software (version 3.1.1; R Development Core Team). Following EPA guidance on dose–response modeling, a cutoff of one standard deviation across means of vehicle control (i.e., 0.5% vol/vol DMSO in cell culture media) wells was applied to determine the point-of-departure (POD) values ([U.S. EPA 2012]). In the absence of a concentration–response, the highest tested concentration (i.e., 100μM ) was assigned as “no observable adverse effect level.” The concentration–response assessment R script, as well as templates for vehicle and concentration–response data, are available as a supplement to Sirenko et al. ([2017]). The ability of physicochemical properties to predict differences in PODs were evaluated by multiregression and mixed-effects modeling using R.

[2] = system: iCell endothelial cells (human iPSC-derived ECs); experiment: Tube formation (tubulogenesis) assay in iCell endothelial cells, 18 h; assay type: cell-based; settings: Homo sapiens, Endothelial cell, iPSC-EC tube formation, 18 hr; for activity at 0.1 µM: 0.10 µM; for minimal effective concentration: top concentration 100.00 µM
Method: as §1
Tube formation assays were performed on Geltrex™ LDEV-free reduced growth factor basement membrane using both iCell®-endothelial cells and HUVECs in 384-well format exactly as detailed in Iwata et al. ([2017]). Negative controls included media-only and vehicle control (i.e., 0.5% vol/vol DMSO in cell culture media) wells. Positive assay controls were consistent with previously published reports ([Iwata et al. 2017]) and included TAB ( 50μM ) as a cytotoxic control, and nocodazole ( 0.01–1μM ), suramin ( 0.5–50μM ), histamine ( 0.1–100μM ), and chloroquine ( 1–500μM ) as chemicals associated with specific effects on ECs. Each test chemical was screened in triplicate for each concentration. Briefly, for iCell®-endothelial cells, starvation media consisted of VascuLife® basal medium with 4 mM L-glutamine LifeFactor and 0.1% iCell®-endothelial cells medium supplement. To counter dilution effects, a 2× concentration of the HUVEC maintenance medium supplemented with additional VEGF was created (EGM™-2 BulletKits™ at 2× concentration; also the VEGF component was replaced with 12.5 ng/mL VEGF). Geltrex™ LDEV-free reduced growth factor basement membrane was thawed overnight and dispensed into 384-well plates ( 10μL/well ) with tapping and rotating to evenly coat. The plates were incubated for 1 h in a cell culture incubator at 37°C and 5% CO2 . A 2× PCB plate (containing all of the PCBs and metabolites in dose–response) was prepared in basal media and added, 25μL per well, to the Geltrex™ coated plates. On separate plates, cells were seeded 7,500 (iPSC- ECs) or 3,500 (HUVEC) cells/well. Cells were exposed to chemicals overnight at 37°C and 5% CO2 and stained with 3× concentration of calcein AM ( 25μL /well, 6μmol/L ) for 15 min before imaging. Images were captured at 4× magnification with the FITC filter (calcein AM). Images were analyzed with the angiogenesis module software within MetaXpress™ (Molecular Devices).
as §2

[3] = 0.00 µM control = 100.00, read-out: endo.cyto.24hr
[4] = 0.00 µM control = 100.00, read-out: endo.mito.24hr
[5] = 0.00 µM control = 100.00, read-out: endo.mitoint.24hr
[6] = 0.00 µM control = 100.00, read-out: endo.nma.24hr
[7] = 0.00 µM control = 100.00, read-out: endo.tc.24hrs
[8] = 0.00 µM control = 100.00, read-out: endo.mtl.18hr
[9] = 0.00 µM control = 100.00, read-out: endo.tlps.18hr
[10] = 0.00 µM control = 100.00, read-out: endo.tta.18hr
[11] = 0.00 µM control = 100.00, read-out: endo.ttl.18hr

O=S(=O)(O)Oc1cccc(-c2ccc(Cl)cc2)c1 [3'-yl PCB 3 sulfate]
viability at 0.01 µM [1, 3]: 101% | activity at 0.01 µM [1, 4]: 101% | activity at 0.01 µM [1, 5]: 106% | activity at 0.01 µM [1, 6]: 99.3% | viability at 0.01 µM [1, 7]: 101% | viability at 0.1 µM [1, 3]: 93.7% | activity at 0.1 µM [1, 4]: 93.7% | activity at 0.1 µM [1, 5]: 105% | activity at 0.1 µM [1, 6]: 103% | viability at 0.1 µM [1, 7]: 93.7% | viability at 1 µM [1, 3]: 97.2% | activity at 1 µM [1, 4]: 97.2% | activity at 1 µM [1, 5]: 105% | activity at 1 µM [1, 6]: 102% | viability at 1 µM [1, 7]: 97.2% | viability at 10 µM [1, 3]: 98.7% | activity at 10 µM [1, 4]: 98.8% | activity at 10 µM [1, 5]: 111% | activity at 10 µM [1, 6]: 99.5% | viability at 10 µM [1, 7]: 98.7% | viability at 100 µM [1, 3]: 98.5% | activity at 100 µM [1, 4]: 98.5% | activity at 100 µM [1, 5]: 103% | activity at 100 µM [1, 6]: 97.4% | viability at 100 µM [1, 7]: 98.5% | minimal effective concentration ([1]; read-out: endo.cyto.24hr POD): 100 µM | minimal effective concentration ([1]; read-out: endo.mito.24hr POD): 100 µM | minimal effective concentration ([1]; read-out: endo.mitoint.24hr POD): 100 µM | minimal effective concentration ([1]; read-out: endo.nma.24hr POD): 100 µM | minimal effective concentration ([1]; read-out: endo.tc.24hrs POD): 100 µM | activity at 0.01 µM [2, 8]: 93.5% | activity at 0.01 µM [2, 9]: 81.8% | activity at 0.01 µM [2, 10]: 112% | activity at 0.01 µM [2, 11]: 103% | activity at 0.1 µM [2, 8]: 87.9% | activity at 0.1 µM [2, 9]: 126% | activity at 0.1 µM [2, 10]: 93% | activity at 0.1 µM [2, 11]: 88.2% | activity at 1 µM [2, 8]: 91.5% | activity at 1 µM [2, 9]: 103% | activity at 1 µM [2, 10]: 108% | activity at 1 µM [2, 11]: 98.9% | activity at 10 µM [2, 8]: 70.7% | activity at 10 µM [2, 9]: 99.4% | activity at 10 µM [2, 10]: 63.7% | activity at 10 µM [2, 11]: 60% | activity at 100 µM [2, 8]: 59.2% | activity at 100 µM [2, 9]: 33.7% | activity at 100 µM [2, 10]: 59.5% | activity at 100 µM [2, 11]: 60.4% | minimal effective concentration ([2]; read-out: endo.mtl.18hr POD): 0.58 µM | minimal effective concentration ([2]; read-out: endo.tlps.18hr POD): 38.6 µM | minimal effective concentration ([2]; read-out: endo.tta.18hr POD): 11.6 µM | minimal effective concentration ([2]; read-out: endo.ttl.18hr POD): 8.75 µM
